How the values were obtained:
lipoamide = compound: NC(=O)CCCCC1CCSS1 [lipoamide]; assay: thermal stability z-score vs DMSO; higher = more thermally stabilized by treatment; conditions: HeLa, lipoamide concentration 100 µM
Procedure: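 Cellular thermal proteome profiling in HeLa cells. Cells were treated with 100 µM lipoamide for 1 h, with or without 1 mM arsenate for a further 1 h, then heated to ten temperatures (37-66.3 °C), and soluble protein was quantified by TMT mass spectrometry relative to 0.1% DMSO controls. The thermal stability score (sum of log2 fold changes minus the abundance score) was transformed to a z-score; mean of n = 3 experiments.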

potassium arsenate = compound: O=[As]([O-])(O)O.[K+] [potassium arsenate]; assay: as above; conditions: HeLa; arsenate concentration 1 mM
Procedure: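 Cellular thermal proteome profiling in HeLa cells treated with 1 mM arsenate for 1 h (DMSO pretreatment), heated to ten temperatures (37-66.3 °C). Soluble protein was quantified by TMT mass spectrometry relative to DMSO controls; the thermal stability score was transformed to a z-score; mean of n = 3 experiments.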

[1] = arsenate co-treatment: 1 mM arsenate 1 h
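Note: each temperature applied for 3 min, abundance score taken as mean log2 fold change at the two lowest temperatures, z-score obtained by mean subtraction and division by SD.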

Sequence of UniProt O15127 (O15127 whole entry): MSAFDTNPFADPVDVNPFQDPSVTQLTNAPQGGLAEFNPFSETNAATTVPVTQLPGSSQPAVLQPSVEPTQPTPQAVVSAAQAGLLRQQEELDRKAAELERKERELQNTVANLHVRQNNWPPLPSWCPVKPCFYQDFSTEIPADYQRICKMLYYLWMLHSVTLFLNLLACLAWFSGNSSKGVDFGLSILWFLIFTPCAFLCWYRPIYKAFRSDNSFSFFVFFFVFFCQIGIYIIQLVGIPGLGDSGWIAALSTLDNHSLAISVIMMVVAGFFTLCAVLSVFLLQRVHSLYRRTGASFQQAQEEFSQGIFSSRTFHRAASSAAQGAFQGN
Sequence of UniProt Q9NPF0 (Q9NPF0 whole entry): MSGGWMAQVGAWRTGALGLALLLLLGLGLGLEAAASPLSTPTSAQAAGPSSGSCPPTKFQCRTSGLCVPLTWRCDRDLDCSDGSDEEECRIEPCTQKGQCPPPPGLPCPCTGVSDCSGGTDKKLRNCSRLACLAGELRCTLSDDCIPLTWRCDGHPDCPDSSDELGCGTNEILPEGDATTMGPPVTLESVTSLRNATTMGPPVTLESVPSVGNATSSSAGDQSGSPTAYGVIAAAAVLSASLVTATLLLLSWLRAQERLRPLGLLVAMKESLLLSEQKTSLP
Sequence of UniProt O43143 (O43143 whole entry): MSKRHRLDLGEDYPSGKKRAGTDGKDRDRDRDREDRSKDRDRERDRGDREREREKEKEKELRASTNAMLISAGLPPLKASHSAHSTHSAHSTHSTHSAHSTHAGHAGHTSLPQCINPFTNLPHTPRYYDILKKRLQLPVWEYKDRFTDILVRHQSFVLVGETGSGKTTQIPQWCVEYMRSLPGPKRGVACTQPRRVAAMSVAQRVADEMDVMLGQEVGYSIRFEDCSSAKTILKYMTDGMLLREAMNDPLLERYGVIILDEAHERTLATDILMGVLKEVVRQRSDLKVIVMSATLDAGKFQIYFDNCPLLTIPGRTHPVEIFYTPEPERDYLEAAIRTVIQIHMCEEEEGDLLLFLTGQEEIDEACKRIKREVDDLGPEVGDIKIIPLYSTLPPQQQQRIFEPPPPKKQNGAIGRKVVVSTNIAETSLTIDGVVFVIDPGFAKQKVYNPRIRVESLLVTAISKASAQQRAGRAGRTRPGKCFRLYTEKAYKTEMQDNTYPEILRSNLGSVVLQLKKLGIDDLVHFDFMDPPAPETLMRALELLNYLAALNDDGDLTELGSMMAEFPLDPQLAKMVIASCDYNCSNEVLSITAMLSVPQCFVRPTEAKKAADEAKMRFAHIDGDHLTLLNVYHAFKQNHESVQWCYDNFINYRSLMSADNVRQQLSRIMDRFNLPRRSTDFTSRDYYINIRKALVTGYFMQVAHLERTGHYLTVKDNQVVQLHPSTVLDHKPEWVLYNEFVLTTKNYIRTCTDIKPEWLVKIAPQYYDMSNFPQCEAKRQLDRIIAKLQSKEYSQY
Sequence of UniProt A2RTX5 (A2RTX5 whole entry): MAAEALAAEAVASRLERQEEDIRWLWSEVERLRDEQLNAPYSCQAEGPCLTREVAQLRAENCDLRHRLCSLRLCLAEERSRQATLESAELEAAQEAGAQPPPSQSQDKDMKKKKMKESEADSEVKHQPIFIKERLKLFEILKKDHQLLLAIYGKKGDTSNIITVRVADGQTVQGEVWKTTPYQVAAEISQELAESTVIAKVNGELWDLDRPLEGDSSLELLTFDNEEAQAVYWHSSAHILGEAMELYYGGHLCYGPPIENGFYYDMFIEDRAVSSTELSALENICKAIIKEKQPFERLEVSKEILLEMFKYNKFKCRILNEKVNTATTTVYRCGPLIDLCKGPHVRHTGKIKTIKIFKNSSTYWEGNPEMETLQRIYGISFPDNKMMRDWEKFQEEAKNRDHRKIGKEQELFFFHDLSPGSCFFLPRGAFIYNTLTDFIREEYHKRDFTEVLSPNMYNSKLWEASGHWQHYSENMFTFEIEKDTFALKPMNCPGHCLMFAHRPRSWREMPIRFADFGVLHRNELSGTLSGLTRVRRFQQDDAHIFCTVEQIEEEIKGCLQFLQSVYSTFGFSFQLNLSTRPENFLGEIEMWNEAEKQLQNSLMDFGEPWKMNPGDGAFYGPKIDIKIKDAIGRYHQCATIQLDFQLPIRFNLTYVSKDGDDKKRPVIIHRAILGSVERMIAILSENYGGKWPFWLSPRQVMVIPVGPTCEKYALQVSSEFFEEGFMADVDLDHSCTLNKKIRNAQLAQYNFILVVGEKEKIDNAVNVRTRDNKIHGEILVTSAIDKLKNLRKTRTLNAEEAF
Sequence of UniProt Q9UM54 (Q9UM54 whole entry): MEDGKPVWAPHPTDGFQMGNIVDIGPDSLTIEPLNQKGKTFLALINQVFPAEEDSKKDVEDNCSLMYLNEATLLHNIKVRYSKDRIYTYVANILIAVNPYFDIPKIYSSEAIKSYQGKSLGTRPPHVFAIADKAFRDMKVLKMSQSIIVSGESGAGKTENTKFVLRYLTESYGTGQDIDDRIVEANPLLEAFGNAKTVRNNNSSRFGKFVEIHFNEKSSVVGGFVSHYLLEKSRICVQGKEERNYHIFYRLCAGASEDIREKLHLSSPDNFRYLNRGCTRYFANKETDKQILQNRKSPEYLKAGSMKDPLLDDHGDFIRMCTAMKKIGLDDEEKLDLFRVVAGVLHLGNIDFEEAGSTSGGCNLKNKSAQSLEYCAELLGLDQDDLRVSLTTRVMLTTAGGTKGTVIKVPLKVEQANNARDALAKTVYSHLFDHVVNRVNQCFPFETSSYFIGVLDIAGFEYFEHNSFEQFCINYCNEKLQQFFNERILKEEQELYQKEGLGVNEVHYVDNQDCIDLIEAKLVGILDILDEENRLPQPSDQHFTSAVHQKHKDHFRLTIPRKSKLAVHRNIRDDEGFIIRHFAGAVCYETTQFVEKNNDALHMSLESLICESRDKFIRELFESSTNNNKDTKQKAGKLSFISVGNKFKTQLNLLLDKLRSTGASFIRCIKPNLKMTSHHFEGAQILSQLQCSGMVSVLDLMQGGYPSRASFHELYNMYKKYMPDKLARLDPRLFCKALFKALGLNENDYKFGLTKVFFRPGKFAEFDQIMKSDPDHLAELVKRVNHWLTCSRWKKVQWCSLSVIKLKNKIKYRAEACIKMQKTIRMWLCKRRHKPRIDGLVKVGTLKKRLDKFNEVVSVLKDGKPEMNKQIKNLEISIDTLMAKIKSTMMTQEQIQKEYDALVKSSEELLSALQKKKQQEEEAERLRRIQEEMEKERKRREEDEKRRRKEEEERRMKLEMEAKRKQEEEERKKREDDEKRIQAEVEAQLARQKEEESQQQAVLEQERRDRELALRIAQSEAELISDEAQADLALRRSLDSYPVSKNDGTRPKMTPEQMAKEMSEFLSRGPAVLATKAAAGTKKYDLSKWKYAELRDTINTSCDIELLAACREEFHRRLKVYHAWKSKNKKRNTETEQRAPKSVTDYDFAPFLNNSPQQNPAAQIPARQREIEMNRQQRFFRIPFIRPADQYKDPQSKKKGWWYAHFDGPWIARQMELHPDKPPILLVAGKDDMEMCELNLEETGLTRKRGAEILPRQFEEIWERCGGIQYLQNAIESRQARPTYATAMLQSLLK
Sequence of UniProt Q9UI26 (Q9UI26 whole entry): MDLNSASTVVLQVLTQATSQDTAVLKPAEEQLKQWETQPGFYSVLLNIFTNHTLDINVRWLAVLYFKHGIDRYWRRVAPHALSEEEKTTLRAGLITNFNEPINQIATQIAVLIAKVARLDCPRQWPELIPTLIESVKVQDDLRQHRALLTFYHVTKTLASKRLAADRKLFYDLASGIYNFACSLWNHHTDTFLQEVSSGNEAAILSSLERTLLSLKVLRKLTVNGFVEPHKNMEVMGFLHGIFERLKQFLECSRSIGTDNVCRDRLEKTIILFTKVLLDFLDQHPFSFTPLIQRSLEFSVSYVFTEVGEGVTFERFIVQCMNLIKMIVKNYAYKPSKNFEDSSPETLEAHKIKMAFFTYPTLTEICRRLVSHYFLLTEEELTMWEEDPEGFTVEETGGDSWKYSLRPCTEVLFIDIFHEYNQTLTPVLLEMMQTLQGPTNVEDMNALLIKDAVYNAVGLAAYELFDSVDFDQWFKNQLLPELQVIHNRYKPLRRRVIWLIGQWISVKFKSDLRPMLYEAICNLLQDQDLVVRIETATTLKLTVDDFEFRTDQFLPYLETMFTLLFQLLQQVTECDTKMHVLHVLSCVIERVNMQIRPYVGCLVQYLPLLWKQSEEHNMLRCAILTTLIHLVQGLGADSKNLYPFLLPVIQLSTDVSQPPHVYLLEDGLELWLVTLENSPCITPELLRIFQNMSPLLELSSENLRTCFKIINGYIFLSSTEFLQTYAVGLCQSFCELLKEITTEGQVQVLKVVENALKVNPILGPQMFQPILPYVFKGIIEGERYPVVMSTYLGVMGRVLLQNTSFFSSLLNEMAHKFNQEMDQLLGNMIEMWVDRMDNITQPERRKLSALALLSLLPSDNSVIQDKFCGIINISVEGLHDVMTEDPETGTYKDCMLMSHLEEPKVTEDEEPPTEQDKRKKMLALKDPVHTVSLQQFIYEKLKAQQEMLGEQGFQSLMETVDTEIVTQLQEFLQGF
Sequence of UniProt P55957 (P55957 whole entry): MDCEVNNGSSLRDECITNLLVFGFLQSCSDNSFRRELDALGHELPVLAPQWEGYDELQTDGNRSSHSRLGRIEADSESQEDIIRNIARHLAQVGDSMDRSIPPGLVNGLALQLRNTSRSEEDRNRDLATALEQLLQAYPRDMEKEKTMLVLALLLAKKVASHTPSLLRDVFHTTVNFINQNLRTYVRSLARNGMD
Sequence of UniProt Q9NTM9 (Q9NTM9 whole entry): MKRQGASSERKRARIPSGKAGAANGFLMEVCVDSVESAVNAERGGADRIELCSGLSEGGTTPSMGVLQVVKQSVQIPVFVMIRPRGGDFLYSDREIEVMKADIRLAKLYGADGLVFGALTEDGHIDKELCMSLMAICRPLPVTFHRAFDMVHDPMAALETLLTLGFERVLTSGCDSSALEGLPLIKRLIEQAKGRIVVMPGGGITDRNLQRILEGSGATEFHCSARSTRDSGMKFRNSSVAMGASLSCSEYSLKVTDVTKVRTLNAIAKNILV

Target	thermal stability z-score (lipoamide; [1])	thermal stability z-score (lipoamide; arsenate co-treatment: none)	thermal stability z-score (potassium arsenate)
PWP1 (UniProt Q13610)	-0.0751	-0.259	-2.52
GLCCI1 (UniProt Q86VQ1)	-0.207	-0.418	-0.627
IPO11 (UniProt Q9UI26)	-0.322	-0.104	-0.0713
PTPRK (UniProt Q15262)	-1.17	-0.25	0.129
SMARCC1 (UniProt Q92922)	0.791	1.14	-0.204
ADNP (UniProt Q9H2P0)	-0.0133	-0.0224	-0.271
LYSMD2 (UniProt Q8IV50)	1.24	0.886	1.46
ACTG1 (UniProt P63261)	-0.494	-0.484	-0.572
HIP1R (UniProt O75146)	0.15	0.28	-0.232
COX4I1 (UniProt P13073)	0.239	0.296	0.514
TARSL2 (UniProt A2RTX5)	-0.396	0.561	0.0722
RPUSD4 (UniProt Q96CM3)	-0.196	-1.67	-0.998
FERMT1 (UniProt Q9BQL6)	0.0116	0.904	1.07
ALG10|ALG10B	0.489	-0.122	-0.0103
COL5A1 (UniProt P20908)	-1.41	-1.55	0.375
MYO6 (UniProt Q9UM54)	0.203	0.26	-0.115
ARID1A (UniProt O14497)	0.0489	-0.0643	-0.205
SSR4 (UniProt P51571)	-1.7	-1.43	-0.649
TNFAIP8 (UniProt O95379)	0.127	-0.421	0.147
BAZ1A (UniProt Q9NRL2)	-0.258	0.0591	-0.236
MRPL18 (UniProt Q9H0U6)	-0.339	-0.0505	-0.799
SNX15 (UniProt Q9NRS6)	-0.412	0.114	0.121
SEC11A (UniProt P67812)	-2.78	-1.58	0.475
CUTC (UniProt Q9NTM9)	0.342	0.211	-0.934

Target	thermal stability z-score (lipoamide; [1])	thermal stability z-score (lipoamide; arsenate co-treatment: none)	thermal stability z-score (potassium arsenate)
OXSM (UniProt Q9NWU1)	-0.024	0.0818	0.51
COMMD5 (UniProt Q9GZQ3)	-0.212	0.573	0.0506
MISP (UniProt Q8IVT2)	0.196	0.386	-0.461
FMNL2 (UniProt Q96PY5)	0.0679	-0.0271	-0.048
SLU7 (UniProt O95391)	-0.353	-0.364	-0.0775
COPZ1 (UniProt P61923)	-0.374	0.0476	0.734
AFAP1 (UniProt Q8N556)	0.411	-0.0977	-0.957
IKBKAP (UniProt O95163)	-0.193	-0.141	-0.261
KIAA0319L (UniProt Q8IZA0)	0.936	0.43	-0.349
SPC24 (UniProt Q8NBT2)	-0.122	0.106	-0.0105
PLXNB2 (UniProt O15031)	0.453	0.113	-0.338
PAICS (UniProt P22234)	0.653	0.549	-0.0525
CAB39 (UniProt Q9Y376)	0.454	0.641	-0.245
PGD (UniProt P52209)	0.318	0.403	0.259
MCTP2 (UniProt Q6DN12)	-0.192	-0.145	-0.604
UPF2 (UniProt Q9HAU5)	-0.16	0.104	0.0278
SNX4 (UniProt O95219)	-0.688	-0.344	0.288
CFL2 (UniProt Q9Y281)	0.497	0.000804	-0.466
CD320 (UniProt Q9NPF0)	1.65	0.874	1.01
CBX5 (UniProt P45973)	-0.00136	0.383	-0.0201
DDX17 (UniProt Q92841)	0.121	0.424	-0.776
PPP1CA (UniProt P62136)	0.221	-0.27	-0.971
ZC3HAV1 (UniProt Q7Z2W4)	-0.627	0.183	0.156
FHL2 (UniProt Q14192)	-1.64	-0.905	-6.31

Target	thermal stability z-score (lipoamide; [1])	thermal stability z-score (lipoamide; arsenate co-treatment: none)	thermal stability z-score (potassium arsenate)
PDIA3 (UniProt P30101)	-3.75	-2.98	0.907
PAIP2 (UniProt Q9BPZ3)	0.427	0.233	-1.06
RCC2 (UniProt Q9P258)	-0.997	-0.671	-0.0515
BID (UniProt P55957)	0.895	1.36	0.587
DLG3 (UniProt Q92796)	-0.116	0.02	-0.395
KIF4A (UniProt O95239)	-0.0934	0.023	-0.219
CCT7 (UniProt Q99832)	-0.0924	-0.191	-0.275
GUK1 (UniProt Q16774)	0.321	0.714	0.29
AGPAT5 (UniProt Q9NUQ2)	-0.478	-0.94	-0.259
SPTLC2 (UniProt O15270)	-0.0734	-0.585	-0.25
DDHD2 (UniProt O94830)	0.3	-0.141	-0.0424
VAT1 (UniProt Q99536)	0.819	0.762	1.37
DHX15 (UniProt O43143)	-0.319	-0.389	0.00808
DHRS11 (UniProt Q6UWP2)	0.484	0.188	0.252
FBXO28 (UniProt Q9NVF7)	0.0993	-0.125	-0.115
CDC27 (UniProt P30260)	0.122	0.0944	-0.522
ACAD9 (UniProt Q9H845)	0.127	0.0316	-0.21
SIPA1L2 (UniProt Q9P2F8)	0.197	0.0316	-0.149
SCAMP2 (UniProt O15127)	0.21	-0.804	-1.4
TMEM199 (UniProt Q8N511)	-0.91	-1.15	0.171
ADD1 (UniProt P35611)	-0.281	-0.308	-0.913
PIP4K2C (UniProt Q8TBX8)	0.0507	0.12	1.78
TANC1 (UniProt Q9C0D5)	0.142	1.34	1.14

Reference: the supplement of paper PMC12463676, “Small-molecule dissolution of stress granules by redox modulation benefits ALS models” (Nature Chemical Biology, 2025)
